# Source: ChEMBL document CHEMBL4145521, “Regioselective synthesis of 3,4-diaryl-5-unsubstituted isoxazoles, analogues of natural cytostatic combretastatin A4” (Eur J Med Chem, 2018)
# Tests used:
# Type in all cases: functional
# NCI-H226 = assay: Cytotoxicity against human NCI-H226 cells assessed as cell growth at 0.01 uM incubated for 48 hrs by sulforhodamine B assay relative to control; conditions: NCI-H226, 48 h, read-out: Activity
# COLO 205 = assay: Cytotoxicity against human COLO205 cells assessed as cell growth at 0.01 uM incubated for 48 hrs by sulforhodamine B assay relative to control; conditions: COLO 205, 48 h, read-out: Activity
# SK-MEL-2 = assay: Cytotoxicity against human SK-MEL-2 cells assessed as cell growth at 0.01 uM incubated for 48 hrs by sulforhodamine B assay relative to control; conditions: SK-MEL-2, 48 h, read-out: Activity
# SK-MEL-5 [1] = assay: Cytotoxicity against human SK-MEL-5 cells assessed as cell growth at 0.01 uM incubated for 48 hrs by sulforhodamine B assay relative to control; conditions: SK-MEL-5, 48 h, read-out: Activity
# IGROV-1 [2] = assay: Cytotoxicity against human IGROV1 cells assessed as cell growth at 0.01 uM incubated for 48 hrs by sulforhodamine B assay relative to control; conditions: IGROV-1, 48 h, read-out: Activity
# 786-0 = assay: Cytotoxicity against human 786-0 cells assessed as cell growth at 0.01 uM incubated for 48 hrs by sulforhodamine B assay relative to control; conditions: 786-0, 48 h, read-out: Activity
# HCT-116 = assay: Cytotoxicity against human HCT116 cells assessed as cell growth at 0.1 uM incubated for 48 hrs by sulforhodamine B assay relative to control; conditions: HCT-116, 48 h, read-out: Activity
# SF-295 [3] = assay: Cytotoxicity against human SF295 cells assessed as cell growth at 0.1 uM incubated for 48 hrs by sulforhodamine B assay relative to control; conditions: SF-295, 48 h, read-out: Activity
# IGROV-1 [4] = assay: Cytotoxicity against human IGROV1 cells assessed as cell growth at 0.1 uM incubated for 48 hrs by sulforhodamine B assay relative to control; conditions: IGROV-1, 48 h, read-out: Activity
# CCRF-CEM = assay: Cytotoxicity against human CCRF-CEM cells assessed as cell growth at 1 uM incubated for 48 hrs by sulforhodamine B assay relative to control; conditions: read-out: Activity
# MOLT-4 = assay: Cytotoxicity against human MOLT4 cells assessed as cell growth at 1 uM incubated for 48 hrs by sulforhodamine B assay relative to control; conditions: MOLT-4, 48 h, read-out: Activity
# EKVX = assay: Cytotoxicity against human EKVX cells assessed as cell growth at 1 uM incubated for 48 hrs by sulforhodamine B assay relative to control; conditions: read-out: Activity
# NCI-H322M = assay: Cytotoxicity against human NCI-H322M cells assessed as cell growth at 1 uM incubated for 48 hrs by sulforhodamine B assay relative to control; conditions: read-out: Activity
# KM12 = assay: Cytotoxicity against human KM12 cells assessed as cell growth at 1 uM incubated for 48 hrs by sulforhodamine B assay relative to control; conditions: KM12, 48 h, read-out: Activity
# SW-620 = assay: Cytotoxicity against human SW620 cells assessed as cell growth at 1 uM incubated for 48 hrs by sulforhodamine B assay relative to control; conditions: SW-620, 48 h, read-out: Activity
# Malme-3M = assay: Cytotoxicity against human MALME-3M cells assessed as cell growth at 1 uM incubated for 48 hrs by sulforhodamine B assay relative to control; conditions: read-out: Activity
# OVCAR-3 = assay: Cytotoxicity against human OVCAR3 cells assessed as cell growth at 1 uM incubated for 48 hrs by sulforhodamine B assay relative to control; conditions: OVCAR-3, 48 h, read-out: Activity
# TK-10 = assay: Cytotoxicity against human TK10 cells assessed as cell growth at 1 uM incubated for 48 hrs by sulforhodamine B assay relative to control; conditions: TK-10, 48 h, read-out: Activity
# BT-549 = assay: Cytotoxicity against human BT549 cells assessed as cell growth at 1 uM incubated for 48 hrs by sulforhodamine B assay relative to control; conditions: BT-549, 48 h, read-out: Activity
# T47D = assay: Cytotoxicity against human T47D cells assessed as cell growth at 1 uM incubated for 48 hrs by sulforhodamine B assay relative to control; conditions: read-out: Activity
# K562 = assay: Cytotoxicity against human K562 cells assessed as cell growth at 10 uM incubated for 48 hrs by sulforhodamine B assay relative to control; conditions: K562, 48 h, read-out: Activity
# NCI-H460 = assay: Cytotoxicity against human NCI-H460 cells assessed as cell growth at 10 uM incubated for 48 hrs by sulforhodamine B assay relative to control; conditions: NCI-H460, 48 h, read-out: Activity
# RPMI-8226 = assay: Cytotoxicity against human RPMI8226 cells assessed as cell growth at 100 uM incubated for 48 hrs by sulforhodamine B assay relative to control; conditions: RPMI-8226, 48 h, read-out: Activity
# LOX IMVI = assay: Cytotoxicity against human LOXIMVI cells assessed as cell growth at 100 uM incubated for 48 hrs by sulforhodamine B assay relative to control; conditions: read-out: Activity
# OVCAR-4 = assay: Cytotoxicity against human OVCAR4 cells assessed as cell growth at 100 uM incubated for 48 hrs by sulforhodamine B assay relative to control; conditions: OVCAR-4, 48 h, read-out: Activity
# DU-145 = assay: Cytotoxicity against human DU145 cells assessed as cell growth at 100 uM incubated for 48 hrs by sulforhodamine B assay relative to control; conditions: DU-145, 48 h, read-out: Activity
# SF-295 [5] = assay: Cytotoxicity against human SF295 cells incubated for 48 hrs by sulforhodamine B assay; conditions: SF-295, 48 h
# M14 = assay: Cytotoxicity against human M14 cells incubated for 48 hrs by sulforhodamine B assay; conditions: M14, 48 h
# SK-MEL-5 [6] = assay: Cytotoxicity against human SK-MEL-5 cells incubated for 48 hrs by sulforhodamine B assay; conditions: SK-MEL-5, 48 h
# ACHN = assay: Cytotoxicity against human ACHN cells incubated for 48 hrs by sulforhodamine B assay
# MCF7 = assay: Cytotoxicity against human MCF7 cells incubated for 48 hrs by sulforhodamine B assay; conditions: MCF7, 48 h
# [7] = read-out: LC50 (the source's name)
# [8] = read-out: pLC50 (the source's name) (converted)
smiles,measurement,setting,value
COc1ccc(-c2nocc2-c2cc(OC)c(OC)c(OC)c2)cc1,growth at 0.01 µM,NCI-H226,100%
same,growth at 0.01 µM,COLO 205,91%
same,growth at 0.01 µM,SK-MEL-2,99%
same,growth at 0.01 µM,SK-MEL-5 [1],100%
same,growth at 0.01 µM,IGROV-1 [2],97%
same,growth at 0.01 µM,786-0,85%
same,growth at 0.1 µM,HCT-116,21%
same,growth at 0.1 µM,SF-295 [3],36%
same,growth at 0.1 µM,IGROV-1 [4],54%
same,growth at 1 µM,CCRF-CEM,24%
same,growth at 1 µM,MOLT-4,44%
same,growth at 1 µM,EKVX,37%
same,growth at 1 µM,NCI-H322M,46%
same,growth at 1 µM,KM12,20%
same,growth at 1 µM,SW-620,21%
same,growth at 1 µM,Malme-3M,46%
same,growth at 1 µM,OVCAR-3,1%
same,growth at 1 µM,TK-10,21%
same,growth at 1 µM,BT-549,33%
same,growth at 1 µM,T47D,37%
same,growth at 10 µM,K562,9%
same,growth at 10 µM,NCI-H460,4%
same,growth at 100 µM,RPMI-8226,-17%
same,growth at 100 µM,LOX IMVI,-7%
same,growth at 100 µM,OVCAR-4,15%
same,growth at 100 µM,DU-145,7%
same,GI50,SF-295 [5]; read-out: GI50,0.0505 µM
same,CC50,SF-295 [5]; [7],> 100 µM
same,TGI,SF-295 [5]; read-out: TGI,13.1 µM
same,GI50,SF-295 [5]; read-out: pGI50 (converted),0.0501 µM
same,CC50,SF-295 [5]; [8],> 100 µM
same,TGI,SF-295 [5]; read-out: pTGI (converted),13.2 µM
same,GI50,M14; read-out: GI50,0.0668 µM
same,CC50,M14; [7],> 100 µM
same,TGI,M14; read-out: TGI,53.9 µM
same,GI50,M14; read-out: pGI50 (converted),0.0661 µM
same,CC50,M14; [8],> 100 µM
same,TGI,M14; read-out: pTGI (converted),53.7 µM
same,GI50,SK-MEL-5 [6]; read-out: GI50,0.0715 µM
same,LC50 (concentration killing 50% of cells),SK-MEL-5 [6]; read-out: LC50,27.7 µM
same,TGI,SK-MEL-5 [6]; read-out: TGI,5.25 µM
same,GI50,SK-MEL-5 [6]; read-out: pGI50 (converted),0.0708 µM
same,LC50 (concentration killing 50% of cells),SK-MEL-5 [6]; read-out: pLC50 (converted),27.5 µM
same,TGI,SK-MEL-5 [6]; read-out: pTGI,5.25 µM
same,GI50,ACHN; read-out: GI50,1.19 µM
same,LC50 (concentration killing 50% of cells),ACHN; read-out: LC50,> 100 µM
same,TGI,ACHN; read-out: TGI,49.4 µM
same,GI50,ACHN; read-out: pGI50 (converted),1.2 µM
same,LC50 (concentration killing 50% of cells),ACHN; read-out: pLC50 (converted),> 100 µM
same,TGI,ACHN; read-out: pTGI (converted),49 µM
same,GI50,MCF7; read-out: GI50,0.0408 µM
same,LC50,MCF7; read-out: LC50,> 100 µM
same,TGI,MCF7; read-out: TGI,> 100 µM
same,GI50,MCF7; read-out: pGI50 (converted),0.0407 µM
same,LC50,MCF7; read-out: pLC50 (converted),> 100 µM
same,TGI,MCF7; read-out: pTGI,> 100 µM
